TGI and GI50 data for ten compounds are collected here from PubChem BioAssay (NCI).

Among the test systems are BT-549 breast; CAKI-1 renal; K-562 leukemia; MCF7 breast; NCI-H460 lung; OVCAR-3 ovarian; OVCAR-8 ovarian; SK-OV-3 ovarian; T-47D breast; UACC-257 melanoma.
Common to all, as to assay: inhibition of tumour cell growth, NCI panel, 48 h

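Test compounds were applied to cells in 96-well plates for 48 hours at 5 doses. Here, GI50 denotes the concentration required for 50% inhibition of growth. Definition used: TGI = concentration required for complete inhibition of growth.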 Bounds are passed on as bounds.

Take `N[C@H]1CCC[C@@H](O)C1O` (stereo not given in full): the TGI with BT-549 breast, in the experiment with CAKI-1 renal, with K-562 leukemia, in the experiment on MCF7 breast, with NCI-H460 lung and in the experiment with OVCAR-3 ovarian was over 100 µM throughout. Further, the TGI in the experiment on OVCAR-8 ovarian, in the experiment on SK-OV-3 ovarian, in the experiment with T-47D breast and in the experiment with UACC-257 melanoma was over 100 µM in each case.

`O=[N+]([O-])c1ccc(Sc2cccc[n+]2[O-])c2nonc12`: the GI50 in the experiment with BT-549 breast was 12.7 µM; in the experiment with CAKI-1 renal, 4.85 µM; with K-562 leukemia, 2.1 µM; in the experiment with MCF7 breast, 1.77 µM; in the experiment on NCI-H460 lung, 3.64 µM; with OVCAR-3 ovarian, 1.07 µM. Further, the GI50 in the experiment on OVCAR-8 ovarian is 9.93 µM; in the experiment on SK-OV-3 ovarian, 30 µM; in the experiment on T-47D breast, 1.69 µM; in the experiment on UACC-257 melanoma, 11.5 µM. The TGI in the experiment with BT-549 breast was 25.8 µM; in the experiment with CAKI-1 renal, 15.4 µM; in the experiment on K-562 leukemia it was over 100 µM; with MCF7 breast, 10.8 µM; in the experiment with NCI-H460 lung it was 25.2 µM; in the experiment on OVCAR-3 ovarian, 2.48 µM. Moreover, the TGI with OVCAR-8 ovarian was over 67.6 µM; with SK-OV-3 ovarian it was over 100 µM; in the experiment with T-47D breast, 6.5 µM; with UACC-257 melanoma it was 24.7 µM.

For the compound `COc1ccc2[nH]c3c(C)c4c(c(C)c3c2c1)CN(C)C=C4`, the TGI with BT-549 breast is 4.41 µM; with CAKI-1 renal, 57.5 µM; in the experiment with K-562 leukemia it was 46.5 µM; with MCF7 breast, over 100 µM; in the experiment with NCI-H460 lung it was 11.2 µM; with OVCAR-3 ovarian, 34.9 µM. Also, the TGI in the experiment with OVCAR-8 ovarian stood at 13.6 µM; with SK-OV-3 ovarian, 56.6 µM; with T-47D breast, 14.9 µM; in the experiment on UACC-257 melanoma, 16.8 µM.

For `COC(=O)NC1(NC(=O)OC)NC(=O)c2ccccc2N1`, the TGI with BT-549 breast, in the experiment with CAKI-1 renal, in the experiment on K-562 leukemia, with MCF7 breast, in the experiment with NCI-H460 lung and with OVCAR-3 ovarian was over 100 µM throughout. Further, the TGI in the experiment with OVCAR-8 ovarian, in the experiment on SK-OV-3 ovarian, in the experiment on T-47D breast and in the experiment on UACC-257 melanoma was over 100 µM each time.

For `C=C1C(=O)OC2CC1C(OC(=O)/C=C/c1ccccc1)C/C(C)=C/CC/C(C)=C/CCC2(C)O` (stereo not given), the TGI in the experiment with BT-549 breast is 2.8 µM; in the experiment on CAKI-1 renal, 2.78 µM; in the experiment on K-562 leukemia, over 100 µM; in the experiment on MCF7 breast it was 1.96 µM; in the experiment on NCI-H460 lung, 2.74 µM; in the experiment on OVCAR-3 ovarian, 2.87 µM. Further, the TGI with OVCAR-8 ovarian was determined as 6.99 µM; in the experiment with SK-OV-3 ovarian, 5.46 µM; with T-47D breast it was 18.4 µM; in the experiment on UACC-257 melanoma it was 3.79 µM.

`O=C(O)/C=C/c1c2ccc(=O)c(O)c-2oc2c(O)c(O)ccc12`: the TGI in the experiment with BT-549 breast was over 100 µM; in the experiment on CAKI-1 renal it was over 100 µM; in the experiment with K-562 leukemia, 50.2 µM; in the experiment on MCF7 breast, 34.8 µM; with NCI-H460 lung, over 100 µM; in the experiment with OVCAR-3 ovarian, over 100 µM. Also, the TGI in the experiment with OVCAR-8 ovarian, in the experiment with SK-OV-3 ovarian, in the experiment with T-47D breast and with UACC-257 melanoma was over 100 µM each time.

On to `CCN1C(=O)N(CC)C2C1NN=c1s/c(=C3\C(=O)Nc4ccccc43)c(=O)n12` (stereo not given), for which the GI50 in the experiment on BT-549 breast is 1.06 µM; in the experiment with CAKI-1 renal it was 0.404 µM; in the experiment with K-562 leukemia it was 0.343 µM; with MCF7 breast, 0.354 µM; in the experiment on NCI-H460 lung, 0.397 µM; in the experiment with OVCAR-3 ovarian, 0.331 µM. In addition, the GI50 in the experiment with OVCAR-8 ovarian is 0.639 µM; in the experiment on SK-OV-3 ovarian, 0.781 µM; in the experiment on T-47D breast, 0.42 µM; with UACC-257 melanoma it was 25.2 µM. For the same compound, the TGI with BT-549 breast was 32.3 µM; in the experiment with CAKI-1 renal, 34.8 µM; in the experiment on K-562 leukemia it was over 100 µM; with MCF7 breast, over 89.7 µM; with NCI-H460 lung, over 100 µM; in the experiment on OVCAR-3 ovarian, 3.02 µM. Moreover, the TGI was over 53.7 µM in the experiment on OVCAR-8 ovarian, 29.6 µM with SK-OV-3 ovarian, over 100 µM in the experiment with T-47D breast and over 100 µM in the experiment with UACC-257 melanoma.

As to `NCC(=O)Nc1ccc(Cl)cc1C(=O)c1ccc[nH]1`, the TGI in the experiment with BT-549 breast, in the experiment on CAKI-1 renal, with K-562 leukemia, with MCF7 breast, with NCI-H460 lung and with OVCAR-3 ovarian was over 100 µM throughout. Besides, the TGI in the experiment with OVCAR-8 ovarian, in the experiment with SK-OV-3 ovarian, in the experiment with T-47D breast and in the experiment with UACC-257 melanoma was over 100 µM in each case.

For `O=NNc1ccc(-c2ccccc2)cn1`, the TGI with BT-549 breast is over 100 µM; with CAKI-1 renal it was 43.8 µM; in the experiment on K-562 leukemia, over 100 µM; in the experiment on MCF7 breast it was over 23.6 µM; in the experiment with NCI-H460 lung it was 42.9 µM; with OVCAR-3 ovarian, 53.1 µM. Moreover, the TGI in the experiment with OVCAR-8 ovarian is over 100 µM; in the experiment on SK-OV-3 ovarian it was over 78.8 µM; with T-47D breast, over 77.9 µM; with UACC-257 melanoma, over 90.6 µM.

Turning to `O=C1c2ccccc2C(=O)c2c1ccc1conc21`, the TGI in the experiment with BT-549 breast was found to be 3.68 µM; in the experiment with CAKI-1 renal, 8.93 µM; in the experiment on K-562 leukemia, 42.5 µM; in the experiment on MCF7 breast it was 2.65 µM; with NCI-H460 lung, 12.2 µM; in the experiment with OVCAR-3 ovarian, 0.974 µM. Besides, the TGI was 4.21 µM in the experiment with OVCAR-8 ovarian, 13.3 µM with SK-OV-3 ovarian, 2.02 µM with T-47D breast and 4.37 µM with UACC-257 melanoma.
